In brackets after ≈: the same amount, converted by molar mass. Like-named read-outs stand apart in the source and are kept apart here.
How the values were obtained:
[1] = tested on: Salmonella typhimurium CT10; experiment: Antibacterial activity, microtitre method; type: cell-based; details: Salmonella enterica
Source text: (§1) The antibacterial activity of the preparation of MM 27696 described in the example has been determined by the microtitre method and is reported in The Table.
(§2) Antibacterial Activity of MM 27696 sodium salt determined
(§3) by the Microtitre Method

Bacillus subtilis A = experiment: Antibacterial activity, microtitre method; type: cell-based
Source text: as §1, §2, §3

Shigella sonnei MB 11967 = experiment: Antibacterial activity, microtitre method; type: cell-based; details: MB11967
Source text: as §1, §2, §3

Escherichia coli 0111 = experiment: Antibacterial activity, microtitre method; type: cell-based
Source text: as §1, §2, §3

Serratia marcescens US20 = experiment: Antibacterial activity, microtitre method; type: cell-based
Source text: as §1, §2, §3

Citrobacter freundii E8 = experiment: Antibacterial activity, microtitre method; type: cell-based
Source text: as §1, §2, §3

[2] = tested on: Staphylococcus aureus Oxford; experiment: Antibacterial activity, microtitre method; type: cell-based
Source text: as §1, §2, §3

[3] = tested on: Streptococcus pyogenes CN10; experiment: Antibacterial activity, microtitre method; type: cell-based
Source text: as §1, §2, §3

Proteus morganii I580 = experiment: Antibacterial activity, microtitre method; type: cell-based; details: Morganella morganii
Source text: as §1, §2, §3

[4] = tested on: Staphylococcus aureus 1517; experiment: Antibacterial activity, microtitre method; type: cell-based
Source text: as §1, §2, §3

Proteus rettgeri WM16 = experiment: Antibacterial activity, microtitre method; type: cell-based; details: Providencia rettgeri
Source text: as §1, §2, §3

[5] = tested on: Staphylococcus aureus Russell; experiment: Antibacterial activity, microtitre method; type: cell-based
Source text: as §1, §2, §3

[6] = tested on: Streptococcus pneumoniae CN33; experiment: Antibacterial activity, microtitre method; type: cell-based
Source text: as §1, §2, §3

Pseudomonas aeruginosa A = experiment: Antibacterial activity, microtitre method; type: cell-based
Source text: as §1, §2, §3

Escherichia coli JT 39 = experiment: Antibacterial activity, microtitre method; type: cell-based; details: JT39
Source text: as §1, §2, §3

Proteus vulgaris W091 = experiment: Antibacterial activity, microtitre method; type: cell-based
Source text: as §1, §2, §3

E. coli ESS = experiment: Antibacterial activity, microtitre method; type: cell-based; details: Escherichia coli
Source text: as §1, §2, §3

Streptococcus faecalis I = experiment: Antibacterial activity, microtitre method; type: cell-based; details: Enterococcus faecalis
Source text: as §1, §2, §3

Proteus mirabilis C977 = experiment: Antibacterial activity, microtitre method; type: cell-based
Source text: as §1, §2, §3

Klebsiella aerogenes A = experiment: Antibacterial activity, microtitre method; type: cell-based
Source text: as §1, §2, §3

Enterobacter cloacae N1 = experiment: Antibacterial activity, microtitre method; type: cell-based
Source text: as §1, §2, §3

[7] = target: Klebsiella aerogenes E70 β-Lactamase; experiment: β-Lactamase inhibitory activity; type: biochemical
Experimental: (§4) β-Lactamase Inhibitory Activity of MM 27696 sodium salt
(§5) b = without preincubation

[8] = target: S. aureus Russell β-Lactamase (Staphylococcus aureus, UniProt P00807); experiment: β-Lactamase inhibitory activity; type: biochemical; details: read-out: β-Lactamase Inhibitory Activity I50 (converted)
Experimental: as §4, §5

[9] = target: Enterobacter cloacae P99 β-Lactamase (Enterobacter cloacae, UniProt P05364); experiment: β-Lactamase inhibitory activity; type: biochemical; details: read-out: β-Lactamase Inhibitory Activity I50 (converted)
Experimental: as §4, §5

E. coli JT4 β-Lactamase = E. coli JT4 β-Lactamase (Escherichia coli, UniProt P62593); experiment: β-Lactamase inhibitory activity; type: biochemical; details: read-out: β-Lactamase Inhibitory Activity I50 (converted)
Experimental: as §4, §5

Chain of E. coli JT4 β-Lactamase (P62593 24-286 limits assumed): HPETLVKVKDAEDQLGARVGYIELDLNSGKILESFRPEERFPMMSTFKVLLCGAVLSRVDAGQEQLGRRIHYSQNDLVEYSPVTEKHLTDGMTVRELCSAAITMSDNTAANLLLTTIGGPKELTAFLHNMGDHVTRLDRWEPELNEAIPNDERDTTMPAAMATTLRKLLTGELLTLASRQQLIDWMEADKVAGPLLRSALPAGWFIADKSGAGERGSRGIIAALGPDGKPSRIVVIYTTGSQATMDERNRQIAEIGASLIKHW
Chain of Enterobacter cloacae P99 β-Lactamase (P05364 21-381): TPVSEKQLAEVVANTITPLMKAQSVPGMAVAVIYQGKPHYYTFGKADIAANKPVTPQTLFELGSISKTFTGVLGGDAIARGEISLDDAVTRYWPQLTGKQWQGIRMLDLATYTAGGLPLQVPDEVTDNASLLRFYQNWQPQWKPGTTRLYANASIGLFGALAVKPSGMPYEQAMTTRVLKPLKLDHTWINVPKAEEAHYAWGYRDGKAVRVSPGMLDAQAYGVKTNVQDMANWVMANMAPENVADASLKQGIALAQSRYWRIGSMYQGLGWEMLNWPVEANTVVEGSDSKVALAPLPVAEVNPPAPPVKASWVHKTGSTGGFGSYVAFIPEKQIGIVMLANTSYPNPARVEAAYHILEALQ
Chain of S. aureus Russell β-Lactamase (P00807 25-281): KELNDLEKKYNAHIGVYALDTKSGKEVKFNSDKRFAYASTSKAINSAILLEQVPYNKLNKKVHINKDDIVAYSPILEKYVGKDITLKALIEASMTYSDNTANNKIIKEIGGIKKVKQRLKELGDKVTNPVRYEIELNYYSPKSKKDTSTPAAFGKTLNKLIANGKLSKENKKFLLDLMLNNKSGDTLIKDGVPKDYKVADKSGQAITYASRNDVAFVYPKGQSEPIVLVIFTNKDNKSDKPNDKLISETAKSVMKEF

**Q.** How did the MIC [1] turn out when `CCC(=O)N/C=C/SC1=C(C(=O)O)N2C(=O)[C@@H]([C@H](C)OS(=O)(=O)O)[C@H]2C1` [MM 27696] was run?
**A.** 0.2 µg/mL (≈ 0.492 µM)

**Q.** What about the MIC (Bacillus subtilis A) of the same molecule?
**A.** < 0.1 µg/mL

**Q.** And the MIC (Shigella sonnei MB 11967)?
**A.** < 0.1 µg/mL

**Q.** What about the MIC (Escherichia coli 0111) of the same molecule?
**A.** 0.8 µg/mL (≈ 1.97 µM)

**Q.** What about the MIC (Serratia marcescens US20) of the same molecule?
**A.** 6.2 µg/mL (≈ 15.3 µM)

**Q.** And the MIC (Citrobacter freundii E8)?
**A.** 3.1 µg/mL (≈ 7.63 µM)

**Q.** And the MIC [2]?
**A.** 0.4 µg/mL (≈ 0.984 µM)

**Q.** And the MIC [3]?
**A.** < 0.1 µg/mL

**Q.** And the MIC (Proteus morganii I580)?
**A.** 0.2 µg/mL (≈ 0.492 µM)

**Q.** What about the MIC [4] of the same molecule?
**A.** 100 µg/mL (≈ 246 µM)

**Q.** And the MIC (Proteus rettgeri WM16)?
**A.** 0.4 µg/mL (≈ 0.984 µM)

**Q.** And the MIC [5]?
**A.** 0.8 µg/mL (≈ 1.97 µM)

**Q.** What about the MIC [6] of the same molecule?
**A.** < 0.1 µg/mL

**Q.** What about the MIC (Pseudomonas aeruginosa A) of the same molecule?
**A.** 50 µg/mL (≈ 123 µM)

**Q.** And the MIC (Escherichia coli JT 39)?
**A.** 0.2 µg/mL (≈ 0.492 µM)

**Q.** And the MIC (Proteus vulgaris W091)?
**A.** 0.4 µg/mL (≈ 0.984 µM)

**Q.** And the MIC (E. coli ESS)?
**A.** < 0.1 µg/mL

**Q.** And the MIC (Streptococcus faecalis I)?
**A.** 12.5 µg/mL (≈ 30.8 µM)

**Q.** And the MIC (Proteus mirabilis C977)?
**A.** < 0.1 µg/mL

**Q.** And the MIC (Klebsiella aerogenes A)?
**A.** 0.4 µg/mL (≈ 0.984 µM)

**Q.** And the MIC (Enterobacter cloacae N1)?
**A.** 0.2 µg/mL (≈ 0.492 µM)

**Q.** And the “β-Lactamase Inhibitory Activity I50” value ([7]; a = with preincubation)?
**A.** 0.003 µg/mL

**Q.** And the “β-Lactamase Inhibitory Activity I50” value ([7]; b = without preincubation)?
**A.** 0.4 µg/mL

**Q.** And the IC50 ([8]; a = with preincubation)?
**A.** 73.8 nM

**Q.** What about the IC50 ([8]; b = without preincubation) of the same molecule?
**A.** > 123000 nM

**Q.** And the IC50 ([9]; a = with preincubation)?
**A.** 4.92 nM

**Q.** And the IC50 ([9]; b = without preincubation)?
**A.** 615 nM

**Q.** And the IC50 (E. coli JT4 β-Lactamase; a = with preincubation)?
**A.** 24.6 nM

**Q.** What about the IC50 (E. coli JT4 β-Lactamase; b = without preincubation) of the same molecule?
**A.** 984 nM
